Experimental data as given in patent US20260138083A1, “CARBON DIOXIDE CONCENTRATOR” (NIPPON KAYAKU KABUSHIKI KAISHA, priority 2023, published 2026).

Experiment: Oxidation-reduction resistance evaluation (cyclic voltammetry)
Type: physicochemical
Settings: 0.1 mol/L in 1.0 mol/L aqueous sodium hydrogen carbonate; glass-like carbon electrode, Ag/AgCl reference; sweep rate 100 mV/sec
Protocol: The fluoflavine compound represented by the formula (1-2) was dissolved in an aqueous solution (1.0 mol/L) of sodium hydrogen carbonate (manufactured by Tosoh Corporation, an industrial product) so that the concentration was 0.1 mol/L to produce an electrolyte liquid 10. The electrolyte liquid 10 was added into a sample vial for voltammetry (manufactured by BAS Inc., No. 001056), and a Teflon™ cap for voltammetry (manufactured by BAS Inc., 012671) was attached. A Pt counter electrode (manufactured by BAS Inc., No. 002222), a GCE glass-like carbon electrode (manufactured by BAS Inc., 6.0×3.0 mm, No. 002012), and a saturated KCl/silver/silver chloride reference electrode (manufactured by BAS Inc., No. 013503) were fixed with the Teflon™ cap so as to be immersed in the electrolyte liquid 10, and measurement of cyclic voltammetry was performed with a multi-electrochemical measurement system (manufactured by Hokuto Denko Co., Ltd., HZ-Pro). The potential scanning range was set to −500 mV to 700 mV, and a sweep rate was set to 100 mV/see to perform the measurement.
An electrolyte liquid 12 was prepared in the same manner except that the fluoflavine compound represented by the formula (1-2) in the oxidation-reduction resistance evaluation 1 was changed to the compound represented by the formula (1-17). […]

oxidation-reduction resistance (cyclic voltammogram, first cycle): oxidized and then decomposed
SMILES: O=S(=O)([O-])c1cc(O)c(O)c(S(=O)(=O)[O-])c1.[Na+].[Na+] [formula (1-17)]
